# Reference: paper PMC5703532, “Establishment of an indirect ELISA for detection of the novel antifibrotic peptide M10” (PLoS ONE, 2017)
# Peptide text beside a SMILES is read from it.
# Assays:
# [1] = in vivo, ip, 1 mg/kg
# Experimental: (§2) Mice (n = 30), C57BL/6 males and females 8–10 weeks old weighing 20–25 g, purchased from Jackson Laboratories (Bar Harbor, ME) were used in this study. Mice were housed in ventilated racks in specific pathogen free conditions and were provided with food and water available ad libitum. M10 peptide was solubilized in water and administered intraperitoneally in a dose of 1 mg/kg. Mice were sacrificed by isoflurane overdose, and blood samples were collected by cardiac puncture in the presence of 0.01% of Na-Citrate at time intervals of 15 min, 30 min, 1, 2, 4, 6, 12, 24, and 48 hours after injection. The blood samples (n = 3/group) were centrifuged at 2500 rpm for 10 min, and plasma samples were stored at -80°C. Plasma samples collected from mice injected with water intraperitoneally (n = 3) were used as a negative control.
# (§3) M10 concentration was measured by indirect ELISA developed in our laboratory. Known concentrations of pharmaceutical grade M10 peptide (GenScript, Piscataway, NJ) with purity more than 98% were used to generate the standard curve. Briefly, 100μl of known concentration of M10 (range: 10 ng/ml to 500 ng/ml), blank (PBS without M10), and 100μl of the diluted plasma sample were plated in triplicate in high-affinity polystyrene micro-titer plates. Samples were incubated with gentle rocking overnight at 4°C and blocked with 5% bovine serum albumin in PBS. After washing, samples were incubated for 2 hours at room temperature with anti-cMET rabbit antibody (Santa Cruz Biotechnology, Santa Cruz, CA), followed by 1hour incubation with HRP-conjugated anti-Rabbit IgG (Rockland, Limerick, PA). M10 was detected with ultra-TMB (3, 3’, 5, 5’-tetramethylbenzidine)-substrate, and the reaction was terminated by using 2M sulfuric acid. Absorbance was measured at 450 nm by Spectra Max Plus spectrophotometer. Concentrations of unknown samples were then calculated from their corresponding optical density (OD) values by Softmax Pro 4.8 software (Molecular Devices, Sunnyvale, CA) using the standard curve generated from the known concentrations of M10. Control plasma samples collected from mice with intraperitoneal water injection were run in triplicate with each experiment, mean was calculated, and samples were normalized by subtracting the negative control mean value. Final concentrations were calculated by adjusting the sample dilution factor.
# (§4) To obtain the pharmacokinetic profile of M10 in mouse plasma, C57Bl6 mice were injected intraperitoneally with M10 at a dose of 1mg/kg of body weight. Plasma samples were collected by cardiac puncture in the presence of 0.01% of Na-Citrate at time intervals of 15 min, 30 min, 1h, 2h, 4h, 6h, 12 h, 24 h, and 48 h following injection. Samples were diluted in PBS in order to fit within the range of the standard curves and then tested using the M10 ELISA. Concentration of M10 in plasma samples was calculated by Softmax Pro 4.8 software using the standard curve generated from the known concentration of M10. The samples were normalized by subtracting the negative controls represented by plasma samples obtained from mice injected with H2O.
# [2] = test system: Smad2; settings: cited from earlier work
# Excerpt: (§1) We recently discovered a 10 amino acid antifibrotic peptide (M10) with antifibrotic properties in vitro and in a murine model of lung fibrosis, which is a natural cleavage product by caspase-3 of the cytoplasmic tail of the c-MET receptor tyrosine kinase. Following binding of hepatocyte growth factor (HGF), c-MET undergoes auto phosphorylation at tyrosine residues in its cytoplasmic domain and initiates a cascade of signal transduction events leading to specific cellular responses implicated in embryonic development and tissue regeneration after injury.
# [3] = test system: bleomycin-induced mouse model of lung fibrosis; settings: cited from earlier work
# Excerpt: as §1
# [4] = test system: human lung and skin fibroblasts; settings: cited from earlier work
# Excerpt: as §1
# [5] = in vivo; settings: both, C57BL/6, mouse, ip, 1 mg/kg
# Experimental: as §2, §3, §4
# [6] = test system: caspases, thrombin, factor Xa, trypsin and granzyme B; settings: cited from earlier work
# [7] = Mean M10 concentration in plasma
smiles,measurement,setting,value
C[C@H](NC(=O)[C@@H]1CCCN1C(=O)[C@H](CCCNC(=N)N)NC(=O)[C@@H](N)[C@@H](C)O)C(=O)N[C@@H](CO)C(=O)N[C@@H](Cc1ccccc1)C(=O)N[C@@H](Cc1c[nH]c2ccccc12)C(=O)N[C@@H](CCC(=O)O)C(=O)N[C@H](C(=O)N[C@@H](CO)C(=O)O)[C@@H](C)O [M10] (H-TRPASFWETS-OH; N-terminus and C-terminus assumed),Mean M10 concentration in plasma,"[1]; both, C57BL/6, mouse, 24 h",1216 ng/mL
same,Cmax (peak plasma concentration),[1]; mouse,4.8615 ± 0.0115 µg/mL
same,Time by which plasma concentration declined to minimal (detectable) levels,[1]; mouse,≤ 48 h
same,Interaction with Smad2,[2],interacts with Smad2
same,Effect on collagen,[3],reduces collagen
same,Effect on collagen,[4],reduces collagen
same,AUC(0-t),[5],72.5 ± 2.39 µg·h/mL
same,Tmax,[5],6 h
same,half-life,[5],6.8 ± 0.7 h
same,level at 4 h,[5]; [7],3.59 µg/mL
same,level at 6 h,[5]; [7],4.55 µg/mL
same,level at 12 h,[5]; [7],3.14 µg/mL
same,level at 24 h,[5]; [7],0.801 µg/mL
same,level at 48 h,[5]; [7],0.366 µg/mL
same,Resistance to mammalian proteases,[6],resistance to many mammalian proteases
